Assays:
[1] = biological target: T1, mitochondrial pyruvate carrier (MPC) (Mus musculus, UniProt P63030+Q9D023); assay: Methyl pyruvate reversal of inhibited Pyr-driven respiration; format: cell-based, murine; conditions: permeabilized 4T1 cells; 20 mM methyl Pyr
T1 construct: host or cells: 4T1 murine breast cancer cells, rPFO-permeabilized
T1 sequence (P63030 1-109): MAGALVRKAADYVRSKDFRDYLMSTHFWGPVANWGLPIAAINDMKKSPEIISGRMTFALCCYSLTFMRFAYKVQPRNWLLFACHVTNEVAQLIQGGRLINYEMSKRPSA
T1 sequence (Q9D023 1-127): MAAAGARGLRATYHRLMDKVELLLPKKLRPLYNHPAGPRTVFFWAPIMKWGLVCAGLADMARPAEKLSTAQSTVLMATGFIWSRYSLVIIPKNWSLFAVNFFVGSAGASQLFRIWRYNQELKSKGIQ
Source text: Although our initial experiments and previous literature illustrate the ability of the candidate compounds to inhibit Pyr-driven respiration, we sought to investigate the ability of candidate compounds to inhibit respiration fueled by other metabolic substrates, glutamate and succinate (Fig. 2). Glutamate, similar to Pyr oxidation, results in NADH equivalents that fuel complex I-mediated respiration, and succinate metabolism offers FADH2 for electrons in complex II-driven respiratory processes. […] To further validate the mode of action of the candidate compounds, a series of similar Seahorse experiments were employed (Fig. 2, A–C). In these experiments, 4T1 cells were first permeabilized and were then offered metabolic substrates Pyr (Pyr/Mal; Fig. 2A), glutamate (Glu/Mal, Fig. 2B), or succinate (Fig. 2C), and the resulting OCR was observed. As described previously, Mal and DCA were included in the substrate milieu of glutamate respiration experiments. […] To validate that inhibition of Pyr respiration is due to mitochondrial Pyr uptake and not other Pyr-processing enzymes (i.e., Pyr dehydrogenase), a parallel experiment using methyl pyruvate (MePyr) was employed (Fig. 2, E and F). MePyr is permeable to the mitochondrial membranes, where in the matrix, mitochondrial esterase hydrolysis activity provides Pyr.
Permeabilized cell assays were performed using rPFO as described previously. […]

MDA-MB-231 = assay: MTT cell proliferation inhibition assay, MDA-MB-231; format: cell-based; conditions: Homo sapiens, 72 h, 3 days
Description: Confluent cell cultures were treated with trypsin and resuspended at 5 × 10^4 cells/ml. To a 96-well plate, 100 μl of the 5 × 10^4 cells/ml solution were added and allowed to incubate at 37 °C, 5% CO2 for 24 h. Compounds were then added and allowed to incubate for 3 days. […] Following the 4-h incubation with 3-(4,5-dimethylthiazol-2-yl)-2,5-diphenyltetrazolium bromide, 100 μl of SDS (0.1 g/ml, 0.01 N HCl) was added, and 96-well plates were allowed to incubate for an additional 4 h. […] Treatment absorbances are taken as percentages of the average untreated absorbances and plotted against log(concentration) in GraphPad Prism 10 (GraphPad Software, Inc) to generate effective concentration values where 50% of the cells are not proliferating (EC50).

in vivo = conditions: BALB/c, mouse; for bioavailability / Vd / clearance: plasma; for half-life: in vivo
Description: IV dosing allows for analysis under the assumption of total systemic absorption (Fig. S3A).
In a contract organization Medicilon, 35 male and 35 female BALB/c mice were randomized and put into two groups (n = 15) per sex for each route of administration (4 total groups). Extra mice were used for collection of blank plasma. […] Each time point utilized three mice per group, and each mouse had two blood draws. The blood samples were collected in K2EDTA tubes on ice, centrifuged at 6800g (6 min, 4 °C) to generate plasma samples. The plasma samples were stored below −70 °C until LC–MS/MS analysis. […] After data acquisition, noncompartmental analysis parameters were calculated by Pheonix WinNonlin 7.0.

[2] = tested on: MPC1 and MPC2 KO 4T1 cells; assay: Pyr-driven respiration in CRISPR-Cas9 MPC1/MPC2 KO 4T1 cells; conditions: permeabilized MPC1/MPC2 KO 4T1 cells, FCCP stimulated

CN(Cc1ccc(C(F)(F)F)cc1)c1ccc2cc(C(=O)O)c(=O)oc2c1.NC(CO)(CO)CO [C5, 1,3-dihydroxy-2-(hydroxymethyl)propan-2-aminium 7-(methyl(4-(trifluoromethyl)benzyl)amino)-2-oxo-2H-chromene-3-carboxylate]
reversal of Pyr-driven respiration effects by methyl pyruvate [1]: able to reverse
EC50 (MDA-MB-231): > 1000 µM
bioavailability (in vivo; both, po, 5 mg/kg): ~100%
half-life (in vivo; female, iv, 1 mg/kg): 3.15 h
half-life (in vivo; female, po, 5 mg/kg): 4.41 h
Vd (in vivo; female, iv, 1 mg/kg): 6.92 L/kg
clearance (in vivo; female, iv, 1 mg/kg): 26.6 mL/min/kg
bioavailability (in vivo; female, po, 5 mg/kg): 125%
half-life (in vivo; male, iv, 1 mg/kg): 3.65 h
half-life (in vivo; male, po, 5 mg/kg): 4.04 h
Vd (in vivo; male, iv, 1 mg/kg): 10.2 L/kg
clearance (in vivo; male, iv, 1 mg/kg): 34.3 mL/min/kg
bioavailability (in vivo; male, po, 5 mg/kg): 124%
effects on Pyr-driven maximal respiration in MPC-KO lines [2]: largely diminished

— PMC12355554, “Development of novel mitochondrial pyruvate carrier inhibitors for breast cancer treatment” (The Journal of Biological Chemistry, 2025)
